For 8 compounds, IC50 and AC50 results are on record in patent publication US12606541B2, “PPARg modulators and methods of use” (Eisai R&D Management Co., Ltd., priority 2020, dated 2026).

Like-named read-outs stand apart in the source and are kept apart here.

For one test, the system named is UM-UC-9 engineered cells. In words: Cell proliferation / short-term viability assay, CellTiter-Glo 144 h. It is filed as cell-based, human. Conditions: read-out: CTGlo 144 h UMUC9.5, G150. Put shortly: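 UM-UC-9 engineered assay-ready cells seeded at 500 cells/well in high-glucose DMEM/10% FBS, treated from dose-response plates, grown at 37° C, 5% CO2. CellTiter-Glo 2.0 luminescence read on day 7, with a day-0 pretreatment plate as T0 reference and DMSO wells as negative control.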
A general note: Cellular ATP, detected with luciferase, serves as a proxy for viable cell number.

For the next test, the target named is T1, His6-TEV-PPARγ-(234-505) (Homo sapiens, UniProt P37231).
T1 construct: The His6-TEV-PPARγ-(234-505) protein for assay was expressed and purified; TEV cleavage site (N); made in house
T1 sequence (P37231 234-505): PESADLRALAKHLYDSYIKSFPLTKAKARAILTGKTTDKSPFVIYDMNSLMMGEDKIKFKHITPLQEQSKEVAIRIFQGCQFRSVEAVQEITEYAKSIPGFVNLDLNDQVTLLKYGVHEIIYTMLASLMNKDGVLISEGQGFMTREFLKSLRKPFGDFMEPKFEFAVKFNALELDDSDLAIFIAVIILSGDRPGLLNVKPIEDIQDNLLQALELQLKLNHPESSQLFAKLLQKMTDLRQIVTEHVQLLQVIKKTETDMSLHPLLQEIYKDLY
In words: TR-FRET Assay to Measure Co-R Peptide Recruitment to PPARγ. It is filed as biochemical. As to conditions: Co-R peptide (SMRT-ID2) recruitment; top final concentration 20 μM; read-out: TR-FRET i-Ag; AC50. Put shortly: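 His-tagged PPARγ (or controls) was preincubated with compound for 20 minutes at room temperature, then 5 nM anti-His terbium antibody and 200 nM FITC-labeled SMRT-ID2 corepressor peptide (final) were added for a further hour. TR-FRET signal was normalized to percent response using 500 nM T0070907 and DMSO controls.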
(TR-FRET usually uses a lanthanide donor and a delayed reading to cut background.)

Turning to `COc1cc(-c2cc(C(=O)N3CCC(C(=O)NC4CN(c5cnc(C)cn5)CC4(F)F)CC34CC4)n[nH]2)c(F)cn1` (mixture of isomers) [Example 490, (S)—N—((S)-4,4-difluoro-1-(5-methylpyrazin-2-yl)pyrrolidin-3-yl)-4-(5-(5-fluoro-2-methoxypyridin-4-yl)-1H-pyrazole-3-carbonyl)-4-azaspiro[2.5]octane-7-carboxamide and (S)—N—((R)-4,4-difluoro-1-(5-methylpyrazin-2-yl)pyrrolidin-3-yl)-4-(5-(5-fluoro-2-methoxypyridin-4-yl)-1H-pyrazole-3-carbonyl)-4-azaspiro[2.5]octane-7-carboxamide], the IC50 in the test on UM-UC-9 engineered cells turned out to be 17.3 nM. Further, on His6-TEV-PPARγ-(234-505), the AC50 worked out at 1.9 nM.

Consider “(R)-4-(5-(5-fluoro-2-methoxy-3-methylpyridin-4-yl)-1H-pyrazole-3-carbonyl)-N-((1r,4R)-4-hydroxy-4-(trifluoromethyl)cyclohexyl)-4-azaspiro[2.5]octane-7-carboxamide and (S)-4-(5-(5-fluoro-2-methoxy-3-methylpyridin-4-yl)-1H-pyrazole-3-carbonyl)-N-((1r,4S)-4-hydroxy-4-(trifluoromethyl)cyclohexyl)-4-azaspiro[2.5]octane-7-carboxamide [Example 493]”, for which the IC50 in the test on UM-UC-9 engineered cells stood at 88.6 nM. In addition, at His6-TEV-PPARγ-(234-505), the AC50 was 12.6 nM.

On to `COc1cc(-c2cc(C(=O)N3CC[C@H](C(=O)NCc4ncc(OC5COC5)cc4Cl)CC34CC4)n[nH]2)c(F)cn1` [Example 446, (S)—N-((3-chloro-5-(oxetan-3-yloxy)pyridin-2-yl)methyl)-4-(5-(5-fluoro-2-methoxypyridin-4-yl)-1H-pyrazole-3-carbonyl)-4-azaspiro[2.5]octane-7-carboxamide], for which the IC50 with UM-UC-9 engineered cells (Homo sapiens, UM-UC-9, 144 h) was 27.4 nM. The AC50 at His6-TEV-PPARγ-(234-505) is 1.3 nM.

Consider `COc1cc(-c2cc(C(=O)N3CCC(C(=O)NC(C)C45CCC(O)(CC4)CC5)CC34CC4)n[nH]2)c(F)cn1` (mixture of isomers) [Example 411, (S)-4-(5-(5-fluoro-2-methoxypyridin-4-yl)-1H-pyrazole-3-carbonyl)-N—((R)-1-(4-hydroxybicyclo[2.2.2]octan-1-yl)ethyl)-4-azaspiro[2.5]octane-7-carboxamide and (S)-4-(5-(5-fluoro-2-methoxypyridin-4-yl)-1H-pyrazole-3-carbonyl)-N—((S)-1-(4-hydroxybicyclo[2.2.2]octan-1-yl)ethyl)-4-azaspiro[2.5]octane-7-carboxamide], for which the IC50 in the test with UM-UC-9 engineered cells amounted to 60.1 nM. Besides, the AC50 on His6-TEV-PPARγ-(234-505) amounted to 37.2 nM.

Turning to `COc1cc(-c2cc(C(=O)N3[C@@H]4CC[C@H]3C[C@H](C(=O)NCc3ccc5[nH]nc(F)c5c3)C4)n[nH]2)c(F)cn1` [Example 258, (1R,3S,5S)—N-[(3-fluoro-1H-indazol-5-yl)methyl]-8-[5-(5-fluoro-2-methoxypyridin-4-yl)-1H-pyrazole-3-carbonyl]-8-azabicyclo[3.2.1]octane-3-carboxamide], the IC50 in the test with UM-UC-9 engineered cells (Homo sapiens, UM-UC-9, 144 h) came to 20 nM. Further, the AC50 at His6-TEV-PPARγ-(234-505) was 17 nM.

On to `COc1cc(-c2cc(C(=O)N3CCC(C(=O)NC(C)COc4ccc(Cl)cc4)CC3)n[nH]2)c(Cl)cn1` (stereo not shown) [Example 142, 1-(5-(5-chloro-2-methoxypyridin-4-yl)-1H-pyrazole-3-carbonyl)-N-(1-(4-chlorophenoxy)propan-2-yl)piperidine-4-carboxamide], for which the IC50 with UM-UC-9 engineered cells (Homo sapiens, UM-UC-9, 144 h) worked out at 3140 nM. The AC50 on His6-TEV-PPARγ-(234-505) came to 904 nM.

Turning to `COc1cc(-c2cc(C(=O)N3CCC(C(=O)NCC45CC(CCO4)C5)CC3)n[nH]2)c(Cl)cn1` [Example 230], the IC50 with UM-UC-9 engineered cells (Homo sapiens, UM-UC-9, 144 h) came out at 697 nM. Besides, on His6-TEV-PPARγ-(234-505), the AC50 was 134 nM.

`COc1cc(-c2cc(C(=O)N3CCC(C(=O)NCc4cn(C)nc4C)CC3)n[nH]2)c(Cl)cn1` [Example 124, 1-(5-(5-chloro-2-methoxypyridin-4-yl)-1H-pyrazole-3-carbonyl)-N-((1,3-dimethyl-1H-pyrazol-4-yl)methyl)piperidine-4-carboxamide]: the IC50 with UM-UC-9 engineered cells (Homo sapiens, UM-UC-9, 144 h) was 5020 nM. Further, at His6-TEV-PPARγ-(234-505), the AC50 came to 982 nM.
